Assay results from PubChem BioAssay (NCI).
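GI50 is the concentration that inhibits growth by half. At the TGI there is no net growth.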

Legend:
Test in all cases: NCI anticancer screen, dose series, 384-well format
[1] = tested on: RXF 393 renal
[2] = tested on: SK-OV-3 ovarian
[3] = tested on: MDA-MB-468 breast
[4] = tested on: SF-539 CNS
[5] = tested on: OVCAR-8 ovarian
[6] = tested on: HOP-92 NSCLC
[7] = tested on: MOLT-4 leukemia
[8] = tested on: 786-0 renal
[9] = tested on: HL-60(TB) leukemia
[10] = tested on: HCT-15 colon
[11] = tested on: EKVX NSCLC
[12] = tested on: MALME-3M melanoma
[13] = tested on: OVCAR-3 ovarian
[14] = tested on: NCI-H322M lung
[15] = tested on: T-47D breast
[16] = tested on: SF-268 CNS
[17] = tested on: K-562 leukemia
[18] = tested on: SK-MEL-28 melanoma
[19] = tested on: BT-549 breast
[20] = tested on: IGROV1 ovarian
[21] = tested on: A498 renal
[22] = tested on: NCI-H23 lung
[23] = tested on: A549 NSCLC
[24] = tested on: OVCAR-5 ovarian
[25] = tested on: SNB-19 CNS
[26] = tested on: CCRF-CEM leukemia
[27] = tested on: TK-10 renal
[28] = tested on: HCT-116 colon
[29] = tested on: SNB-75 CNS
[30] = tested on: OVCAR-4 ovarian
[31] = tested on: NCI-H460 NSCLC
[32] = tested on: SN12C renal
[33] = tested on: SF-295 CNS
[34] = tested on: U251 glioblastoma
[35] = tested on: CAKI-1 renal
[36] = tested on: UACC-257 melanoma
[37] = tested on: UO-31 renal
[38] = tested on: COLO 205 colon
[39] = tested on: HOP-62 NSCLC
[40] = tested on: HS 578T breast
[41] = tested on: NCI/ADR-RES ovarian
[42] = tested on: MDA-MB-231 breast
[43] = tested on: SW-620 colon
[44] = tested on: DU-145 prostate
[45] = tested on: HCC-2998 colon

O=C1CCC(N2Cc3cc(CNC(=O)C(F)(F)c4ccc(Cl)cc4)ccc3C2=O)C(=O)N1 (stereo not given)
GI50 [1]: > 100 µM | TGI [1]: > 100 µM | GI50 [2]: > 100 µM | TGI [2]: > 100 µM | GI50 [3]: < 0.01 µM | TGI [3]: 0.0301 µM | GI50 [4]: > 100 µM | TGI [4]: > 100 µM | GI50 [5]: 0.059 µM | TGI [5]: > 100 µM | GI50 [6]: 0.21 µM | TGI [6]: > 100 µM | GI50 [7]: < 0.01 µM | TGI [7]: 0.0133 µM | GI50 [8]: > 100 µM | TGI [8]: > 100 µM | GI50 [9]: < 0.01 µM | TGI [9]: 0.0106 µM | GI50 [10]: 0.744 µM | TGI [10]: > 100 µM | GI50 [11]: > 100 µM | TGI [11]: > 100 µM | GI50 [12]: 0.101 µM | TGI [12]: > 100 µM | GI50 [13]: > 100 µM | TGI [13]: > 100 µM | GI50 [14]: > 100 µM | TGI [14]: > 100 µM | GI50 [15]: 0.0216 µM | TGI [15]: 17.8 µM | GI50 [16]: > 100 µM | TGI [16]: > 100 µM | GI50 [17]: 68.4 µM | TGI [17]: > 100 µM | GI50 [18]: > 100 µM | TGI [18]: > 100 µM | GI50 [19]: 0.0613 µM | TGI [19]: 32.2 µM | GI50 [20]: 0.568 µM | TGI [20]: > 100 µM | GI50 [21]: > 100 µM | TGI [21]: > 100 µM | GI50 [22]: > 100 µM | TGI [22]: > 100 µM | GI50 [23]: > 100 µM | TGI [23]: > 100 µM | GI50 [24]: > 100 µM | TGI [24]: > 100 µM | GI50 [25]: > 100 µM | TGI [25]: > 100 µM | GI50 [26]: < 0.01 µM | TGI [26]: 0.015 µM | GI50 [27]: > 100 µM | TGI [27]: > 100 µM | GI50 [28]: > 100 µM | TGI [28]: > 100 µM | GI50 [29]: 0.463 µM | TGI [29]: > 100 µM | GI50 [30]: > 100 µM | TGI [30]: > 100 µM | GI50 [31]: > 100 µM | TGI [31]: > 100 µM | GI50 [32]: > 100 µM | TGI [32]: > 100 µM | GI50 [33]: > 100 µM | TGI [33]: > 100 µM | GI50 [34]: > 100 µM | TGI [34]: > 100 µM | GI50 [35]: > 100 µM | TGI [35]: > 100 µM | GI50 [36]: > 100 µM | TGI [36]: > 100 µM | GI50 [37]: > 100 µM | TGI [37]: > 100 µM | GI50 [38]: 0.142 µM | TGI [38]: > 100 µM | GI50 [39]: 0.835 µM | TGI [39]: > 100 µM | GI50 [40]: 0.0781 µM | TGI [40]: > 100 µM | GI50 [41]: 24.7 µM | TGI [41]: > 100 µM | GI50 [42]: 0.087 µM | TGI [42]: > 100 µM | GI50 [43]: 0.0885 µM | TGI [43]: > 100 µM | GI50 [44]: > 100 µM | TGI [44]: > 100 µM | GI50 [45]: 0.0908 µM | TGI [45]: > 100 µM
